One experiment has as its target Pim1 kinase (Homo sapiens (Human), UniProt P11309). The experiment is described as follows: Pim1 ATP depletion assay. It counts as biochemical. Particulars: 20 μM ATP, 40 μM BAD peptide, 2.5 nM PIM1. As for the experimental part: (§1) The activity of PIM1 is measured using a luciferase-luciferin based ATP detection reagent to quantify ATP depletion resulting from kinase-catalyzed phosphoryl transfer to a peptide substrate. Compounds to be tested are dissolved in 100% DMSO and directly distributed into white 384-well plates at 0.5 μl per well. […] After 15 minutes, 10 μl of 40 μM ATP in assay buffer is added. Final assay concentrations are 2.5 nM PIM1, 20 μM ATP, 40 μM BAD peptide and 2.5% DMSO. The reaction is performed until approximately 50% of the ATP is depleted, then stopped with the addition of 20 μl KinaseGlo Plus (Promega Corporation) solution. The stopped reaction is incubated for 10 minutes and the remaining ATP detected via luminescence on the Victor2 (Perkin Elmer).

A further experiment concerns the target Pim2 kinase (Homo sapiens (Human), UniProt Q9P1W9). The experiment in a line: Pim2 ATP depletion assay. In kind it is biochemical. As to conditions: 4 μM ATP, 10 μM BAD peptide, 5 nM PIM2. As for the experimental part: as §1, with “of PIM2” for “of PIM1”, “0.5 piper” for “0.5 μl per”, “of 8” for “of 40”, “are 5” for “are 2.5”, “nM PIM2, 4” for “nM PIM1, 20”, “ATP, 10” for “ATP, 40”

The next experiment concerns the target Pim3 kinase (Homo sapiens (Human), UniProt Q86V86). The experiment in a line: Pim3 ATP depletion assay. In kind it is biochemical. As to conditions: 40 μM ATP, 100 μM BAD peptide. As for the experimental part: The activity of PIM3 is measured using a luciferase-luciferin based ATP detection reagent to quantify ATP depletion resulting from kinase-catalyzed phosphoryl transfer to a peptide substrate. Compounds to be tested are dissolved in 100% DMSO and directly distributed into white 384-well plates at 0.5 piper well. […] After 15 minutes, 10 μl of 80 μM ATP in assay buffer is added. Final assay concentrations are 5 nM PIM1, 40 μM ATP, 100 μM BAD peptide and 2.5% DMSO. The reaction is performed until approximately 50% of the ATP is depleted, then stopped by the addition of 20 μl KinaseGlo Plus (Promega Corporation) solution. The stopped reaction is incubated for 10 minutes and the remaining ATP detected via luminescence on the Victor2 (Perkin Elmer).

Experiment [1] deals with KMS11 (human myeloma cell line). The experiment is described as follows: Cell Proliferation Assay. It counts as cell-based. Particulars: KMS-11, 72 h, KMS11 cells, 3 days, Cell Titer-Glow. As to the method: KMS11 (human myeloma cell line), were cultured in IMDM supplemented with 10% FBS, sodium pyruvate and antibiotics. Cells were plated in the same medium at a density of 2000 cells per well into 96 well tissue culture plates, with outside wells vacant, on the day of assay. MM1.s (human myeloma cell line), were cultured in RPMI1640 supplemented with 10% FBS, sodium pyruvate and antibiotics. Cells were plated in the same medium at a density of 5000 cells per well into 96 well tissue culture plates, with outside wells vacant, on the day of assay.
Test compounds supplied in DMSO were diluted into DMSO at 500 times the desired final concentrations before dilution into culture media to 2 times final concentrations. Equal volumes of 2× compounds were added to the cells in 96 well plates and incubated at 37° C. for 3 days.
After 3 days plates were equilibrated to room temperature and equal volume of Cell Titer-Glow Reagent (Promega) was added to the culture wells. The plates were agitated briefly and luminescent signal was measured with luminometer.
Using the procedures for Cell Proliferation Assay described above, the EC50 concentration of compounds of the previous examples were determined in KMS11 cells as shown in the following table.
Background: In ATP-based viability assays light output follows the ATP content of the culture.

The results in this text go back to patent US8829193B2, “PIM kinase inhibitors and methods of their use” (Novartis AG, priority 2008, dated 2014).

A word on the IC50: it is the concentration that gives 50% inhibition. A lower IC50 goes with greater potency. The term EC50 denotes the concentration needed to bring the measured effect to its halfway point.

Chain of Pim1 kinase (P11309 whole entry): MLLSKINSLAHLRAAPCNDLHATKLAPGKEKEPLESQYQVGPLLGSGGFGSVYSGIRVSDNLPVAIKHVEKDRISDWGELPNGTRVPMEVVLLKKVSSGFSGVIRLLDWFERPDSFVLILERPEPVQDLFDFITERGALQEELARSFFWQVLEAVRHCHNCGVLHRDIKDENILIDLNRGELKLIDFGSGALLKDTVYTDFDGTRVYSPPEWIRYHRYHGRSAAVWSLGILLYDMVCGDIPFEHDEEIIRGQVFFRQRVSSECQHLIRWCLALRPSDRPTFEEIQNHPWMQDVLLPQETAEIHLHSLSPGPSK
Chain of Pim2 kinase (Q9P1W9 whole entry): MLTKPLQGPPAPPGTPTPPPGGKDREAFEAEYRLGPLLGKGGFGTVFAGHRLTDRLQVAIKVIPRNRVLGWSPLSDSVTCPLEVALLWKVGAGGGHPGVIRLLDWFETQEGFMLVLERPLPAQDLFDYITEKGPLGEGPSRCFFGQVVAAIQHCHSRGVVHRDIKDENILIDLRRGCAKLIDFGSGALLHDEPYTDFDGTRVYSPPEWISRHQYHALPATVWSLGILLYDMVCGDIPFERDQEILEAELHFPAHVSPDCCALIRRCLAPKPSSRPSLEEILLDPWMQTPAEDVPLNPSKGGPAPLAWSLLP

For the molecule `N[C@@H]1CN(c2ccncc2NC(=O)c2csc(-c3c(F)cccc3F)n2)CC[C@@H]1O` [Example 6, N-(4-((3R,4S)-3-amino-4-hydroxypiperidin-1-yl)pyridin-3-yl)-2-(2,6-difluorophenyl)thiazole-4-carboxamide], the values for the IC50 at Pim1 kinase, against Pim2 kinase and on Pim3 kinase were 1 nM, 3 nM and 1 nM, respectively. Moreover, the concentration for a half-maximal effect (EC50) in experiment [1] stood at 410 nM.
For `CO[C@@H]1C[C@H](N)CN(c2ccncc2NC(=O)c2csc(-c3c(F)cccc3F)n2)C1` [Example 8, N-(4-((3S,5R)-3-amino-5-methoxypiperidin-1-yl)pyridin-3-yl)-2-(2,6-difluorophenyl)thiazole-4-carboxamide], the half-maximal inhibitory concentration (IC50) at Pim1 kinase amounted to 21 nM; at Pim2 kinase it was 46 nM; at Pim3 kinase, 35 nM. The molecule further displayed an EC50 in experiment [1] of 4700 nM.
In the case of `N[C@H]1C[C@@H](F)CN(c2ccncc2NC(=O)c2csc(-c3c(F)cccc3F)n2)C1` [Example 11, N-(4-((3S,5R)-3-amino-5-fluoropiperidin-1-yl)pyridin-3-yl)-2-(2,6-difluorophenyl)thiazole-4-carboxamide], the concentration for half-maximal inhibition (IC50) at Pim1 kinase was 4 nM; at Pim2 kinase it was 55 nM; at Pim3 kinase, 8 nM. Moreover, the midpoint of the response in experiment [1], the EC50, lay at 6100 nM.
For `NC1CC(C(F)(F)F)CN(c2ccncc2NC(=O)c2csc(-c3c(F)cccc3F)n2)C1` (stereo not shown) [Example 15, N-(4-(3-amino-5-(trifluoromethyl)piperidin-1-yl)pyridin-3-yl)-2-(2,6-difluorophenyl)thiazole-4-carboxamide], the IC50 against Pim1 kinase amounted to 1 nM; on Pim2 kinase, 3 nM; at Pim3 kinase, 4 nM. Further, in experiment [1], the response was half-maximal at 310 nM (EC50).
With `NC1CC(CF)CN(c2ccncc2NC(=O)c2csc(-c3c(F)cccc3F)n2)C1` (stereo not shown) [Example 16, N-(4-(3-amino-5-(fluoromethyl)piperidin-1-yl)pyridin-3-yl)-2-(2,6-difluorophenyl)thiazole-4-carboxamide], the figures for the IC50 against Pim1 kinase, at Pim2 kinase and against Pim3 kinase were 1 nM, 3 nM and 4 nM, respectively. Further, the EC50 in experiment [1] was 2380 nM.
As for `CC1CCN(c2ccncc2NC(=O)c2csc(-c3c(F)cccc3F)n2)CC1N` (stereo not shown) [Example 19, N-(4-(3-amino-4-methylpiperidin-1-yl)pyridin-3-yl)-2-(2,6-difluorophenyl)thiazole-4-carboxamide], the figures for the 50% inhibitory concentration (IC50) against Pim1 kinase, on Pim2 kinase and at Pim3 kinase were 1 nM, 8 nM and 5 nM, respectively. Also, a half-maximal response in experiment [1] (EC50) required 930 nM.
The like results for `CCO[C@@H]1C[C@H](N)CN(c2ccncc2NC(=O)c2csc(-c3c(F)cccc3F)n2)C1` [Example 23, N-(4-((3S,5R)-3-amino-5-ethoxypiperidin-1-yl)pyridin-3-yl)-2-(2,6-difluorophenyl)thiazole-4-carboxamide] were, in that order, 56 nM, 85 nM, 86 nM and 6540 nM.
Consider `N[C@H]1C[C@@H](C(F)(F)F)CN(c2ccncc2NC(=O)c2csc(-c3c(F)cccc3F)n2)C1` [Example 27, N-(4-((3S,5R)-3-amino-5-(trifluoromethyl)piperidin-1-yl)pyridin-3-yl)-2-(2,6-difluorophenyl)thiazole-4-carboxamide], for which the IC50 at Pim1 kinase is 1 nM; against Pim2 kinase, 3 nM; against Pim3 kinase, 3 nM. For the same molecule, a half-maximal effect in experiment [1] (EC50) was put at 460 nM.
On to `C[C@H]1CN(c2ccncc2NC(=O)c2csc(-c3c(F)cccc3F)n2)C[C@@H](N)[C@@H]1O` [Example 36, N-(4-((3R,4R,5S)-3-amino-4-hydroxy-5-methylpiperidin-1-yl)pyridin-3-yl)-2-(2,6-difluorophenyl)thiazole-4-carboxamide], for which the IC50 against Pim1 kinase came out at 1 nM; against Pim2 kinase it was 3 nM; against Pim3 kinase it was 3 nM. Also, the EC50 in experiment [1] worked out at 560 nM.
Consider `C[C@H]1C[C@@H](c2ccncc2NC(=O)c2csc(-c3c(F)cccc3F)n2)C[C@@H](N)[C@@H]1O` [Example 41, N-(4-((1R,3R,4R,5S)-3-amino-4-hydroxy-5-methylcyclohexyl)pyridin-3-yl)-2-(2,6-difluorophenyl)thiazole-4-carboxamide (and enantiomer)], for which the IC50 was 4 nM against Pim1 kinase, 27 nM on Pim2 kinase and 8 nM at Pim3 kinase. Further, the EC50 in experiment [1] was more than 10000 nM.
